Laboratory results taken from patent US20070134315A1, “Orally administrable extended release pellet and tablet formulations of a highly water soluble compound” (priority 2005, published 2007).
In brackets after ≈: the same amount, converted by molar mass.

Tests used:
[1] = Water solubility of isovaleramide and dose number; format: physicochemical
Procedure: The water solubility of the drug substance as used herein, is defined according to its dose number, Do, for oral drug delivery. The dose number for a drug is defined by the ratio of its dose concentration to its saturation solubility in a reference fluid according to the following calculation: [formula]
where: Mo is the dose of the drug (mg), Vo is the reference fluid volume (mL) and Cs is the saturation solubility of the drug in the reference fluid (mg/mL) at 37° C. Representative reference fluids for oral drug delivery are aqueous based solutions within the relevant physiologic pH range of the gastrointestinal tract (i.e., pH 1-pH 7.5). A representative reference fluid volume for oral drug delivery is 250 mL. A drug substance is considered to be highly soluble if at its highest dose the Do value is ≦1. […] The solubility of isovaleramide in water at 37° C. is approximately 70 mg/mL. The upper range of a single daily dose of isovaleramide could be 1200 mg to 2400 mg. The Do number range for isovaleramide, calculated using a reference volume of 250 mL and the single daily dose range of 1200 mg to 2400 mg, is 0.07 to 0.14.

[2] = Isothermal thermogravimetric analysis (TGA) of sublimation; format: physicochemical
Procedure: The temperature dependent physical instability of the drug substance was studied in detail in order to determine the appropriate pharmaceutical formulation processes and temperature ranges suitable for the preparation of the pharmaceutical compositions of isovaleramide. An automated thermogravimetric analysis (TGA) method was used to determine the relative rates of isovaleramide sublimation. Isothermal TGA was conducted at 30° C., 35° C., 40° C., 45° C., 50° C. and 60° C. for 24 hours. Samples were prepared by first taring a platinum TGA pan on the TGA system. A sample amount of isovaleramide of 10 mg-15 mg was then added to the pan and distributed evenly. The sample pan was then loaded onto the TGA autosampler for subsequent analysis. Samples were initially equilibrated at their respective isothermal temperature and then monitored for 24 hours. Data sampling was accomplished at a rate of 600 seconds/point. Sample replicates ranged from 1 to 3. TGA instrument and operating conditions were as follows: […]

For `CC(C)CC(N)=O` [Isovaleramide, isovaleramide], the “pH dependence of solubility” value ([1]; physiologic pH range of the gastrointestinal tract) was “pH independent solubility”, the solubility ([1]; water, 37° C.) was about 70 mg/mL (≈ 692 mM) and the “Reduction in Weight %” value ([2]; isothermal 30° C., 1 hr) was 0.05%. The “Reduction in Weight %” value ([2]; isothermal 30° C., 3 hr) was 0.12%, the “Reduction in Weight %” value ([2]; isothermal 30° C., 6 hr) was 0.25% and the “Reduction in Weight %” value ([2]; isothermal 30° C., 9 hr) was 0.41%. The “Reduction in Weight %” value ([2]; isothermal 30° C., 12 hr) was 0.62%, the “Reduction in Weight %” value ([2]; isothermal 30° C., 15 hr) was 0.82% and the “Reduction in Weight %” value ([2]; isothermal 30° C., 18 hr) was 1.01%. For the same compound, the “Reduction in Weight %” value ([2]; isothermal 30° C., 21 hr) was 1.20%, the “Reduction in Weight %” value ([2]; isothermal 30° C., 24 hr) was 1.32% and the “Reduction in Weight %” value ([2]; isothermal 35° C., 1 hr, mean of three) was 0.10%. For the same compound, the “Reduction in Weight %” value ([2]; isothermal 35° C., 3 hr, mean of three) was 0.28%, the “Reduction in Weight %” value ([2]; isothermal 35° C., 6 hr, mean of three) was 0.55% and the “Reduction in Weight %” value ([2]; isothermal 35° C., 9 hr, mean of three) was 0.83%. The “Reduction in Weight %” value ([2]; isothermal 35° C., 12 hr, mean of three) was 1.12%, the “Reduction in Weight %” value ([2]; isothermal 35° C., 15 hr, mean of three) was 1.41% and the “Reduction in Weight %” value ([2]; isothermal 35° C., 18 hr, mean of three) was 1.67%. The “Reduction in Weight %” value ([2]; isothermal 35° C., 21 hr, mean of three) was 1.92%, the “Reduction in Weight %” value ([2]; isothermal 35° C., 24 hr, mean of three) was 2.17% and the “Reduction in Weight %” value ([2]; isothermal 40° C., 1 hr, mean of three) was 0.14%. The “Reduction in Weight %” value ([2]; isothermal 40° C., 3 hr, mean of three) was 0.53%, the “Reduction in Weight %” value ([2]; isothermal 40° C., 6 hr, mean of three) was 1.10% and the “Reduction in Weight %” value ([2]; isothermal 40° C., 9 hr, mean of three) was 1.65%. The “Reduction in Weight %” value ([2]; isothermal 40° C., 12 hr, mean of three) was 2.27%, the “Reduction in Weight %” value ([2]; isothermal 40° C., 15 hr, mean of three) was 2.83% and the “Reduction in Weight %” value ([2]; isothermal 40° C., 18 hr, mean of three) was 3.43%. The “Reduction in Weight %” value ([2]; isothermal 40° C., 21 hr, mean of three) was 4.02%, the “Reduction in Weight %” value ([2]; isothermal 40° C., 24 hr, mean of three) was 4.58% and the “Reduction in Weight %” value ([2]; isothermal 45° C., 1 hr) was 0.27%. The “Reduction in Weight %” value ([2]; isothermal 45° C., 3 hr) was 0.91%, the “Reduction in Weight %” value ([2]; isothermal 45° C., 6 hr) was 1.97% and the “Reduction in Weight %” value ([2]; isothermal 45° C., 9 hr) was 2.95%. For the same compound, the “Reduction in Weight %” value ([2]; isothermal 45° C., 12 hr) was 3.95%, the “Reduction in Weight %” value ([2]; isothermal 45° C., 15 hr) was 4.98% and the “Reduction in Weight %” value ([2]; isothermal 45° C., 18 hr) was 6.02%. The “Reduction in Weight %” value ([2]; isothermal 45° C., 21 hr) was 7.05%, the “Reduction in Weight %” value ([2]; isothermal 45° C., 24 hr) was 8.01% and the “Reduction in Weight %” value ([2]; isothermal 50° C., 1 hr) was 0.54%. The “Reduction in Weight %” value ([2]; isothermal 50° C., 3 hr) was 1.65%, the “Reduction in Weight %” value ([2]; isothermal 50° C., 6 hr) was 3.35% and the “Reduction in Weight %” value ([2]; isothermal 50° C., 9 hr) was 5.05%. The “Reduction in Weight %” value ([2]; isothermal 50° C., 12 hr) was 6.68%, the “Reduction in Weight %” value ([2]; isothermal 50° C., 15 hr) was 8.35% and the “Reduction in Weight %” value ([2]; isothermal 50° C., 18 hr) was 10.04%. For the same compound, the “Reduction in Weight %” value ([2]; isothermal 50° C., 21 hr) was 11.77%, the “Reduction in Weight %” value ([2]; isothermal 50° C., 24 hr) was 13.43% and the “Reduction in Weight %” value ([2]; isothermal 60° C., 1 hr, mean of three) was 1.98%. The “Reduction in Weight %” value ([2]; isothermal 60° C., 3 hr, mean of three) was 5.96%, the “Reduction in Weight %” value ([2]; isothermal 60° C., 6 hr, mean of three) was 11.90% and the “Reduction in Weight %” value ([2]; isothermal 60° C., 9 hr, mean of three) was 17.79%. For the same compound, the “Reduction in Weight %” value ([2]; isothermal 60° C., 12 hr, mean of three) was 23.61%, the “Reduction in Weight %” value ([2]; isothermal 60° C., 15 hr, mean of three) was 29.37% and the “Reduction in Weight %” value ([2]; isothermal 60° C., 18 hr, mean of three) was 35.03%. For the same compound, the “Reduction in Weight %” value ([2]; isothermal 60° C., 21 hr, mean of three) was 40.53% and the “Reduction in Weight %” value ([2]; isothermal 60° C., 24 hr, mean of three) was 44.74%.
